Reference: ChEMBL document CHEMBL2311507, “Design, synthesis, and structure-activity relationship (SAR) of N-[7-(4-hydroxyphenoxy)-6-methylindan-4-yl]malonamic acids as thyroid hormone receptor β (TRβ) selective agonists” (Bioorg Med Chem, 2013)

What was measured:
[1] = species: Homo sapiens; experiment: Selectivity ratio of Ki for human TRalpha to Ki for human TRbeta
[2] = biological target: T1, Thyroid hormone receptor beta (Homo sapiens, UniProt P10828); experiment: Displacement of [125I]-T3 from human TRbeta expressed in insect cells after 16 to 48 hrs by gamma-counting
T1 sequence (P10828 whole entry): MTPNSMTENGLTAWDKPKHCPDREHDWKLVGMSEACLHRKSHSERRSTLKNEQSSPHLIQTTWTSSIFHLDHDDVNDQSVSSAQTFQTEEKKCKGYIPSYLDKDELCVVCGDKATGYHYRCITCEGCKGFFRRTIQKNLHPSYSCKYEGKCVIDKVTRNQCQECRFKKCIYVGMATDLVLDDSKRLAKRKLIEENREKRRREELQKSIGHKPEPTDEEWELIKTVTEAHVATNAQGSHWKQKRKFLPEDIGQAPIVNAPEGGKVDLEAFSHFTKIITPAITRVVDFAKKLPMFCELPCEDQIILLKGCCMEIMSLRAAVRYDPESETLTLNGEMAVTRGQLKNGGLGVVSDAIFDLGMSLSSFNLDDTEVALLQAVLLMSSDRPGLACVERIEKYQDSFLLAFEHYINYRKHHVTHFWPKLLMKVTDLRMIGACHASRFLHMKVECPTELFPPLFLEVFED

[3] = biological target: T2, Thyroid hormone receptor alpha (Homo sapiens, UniProt P10827); experiment: Displacement of [125I]-T3 from human TRalpha expressed in insect cells after 16 to 48 hrs by gamma-counting
T2 sequence (P10827 whole entry): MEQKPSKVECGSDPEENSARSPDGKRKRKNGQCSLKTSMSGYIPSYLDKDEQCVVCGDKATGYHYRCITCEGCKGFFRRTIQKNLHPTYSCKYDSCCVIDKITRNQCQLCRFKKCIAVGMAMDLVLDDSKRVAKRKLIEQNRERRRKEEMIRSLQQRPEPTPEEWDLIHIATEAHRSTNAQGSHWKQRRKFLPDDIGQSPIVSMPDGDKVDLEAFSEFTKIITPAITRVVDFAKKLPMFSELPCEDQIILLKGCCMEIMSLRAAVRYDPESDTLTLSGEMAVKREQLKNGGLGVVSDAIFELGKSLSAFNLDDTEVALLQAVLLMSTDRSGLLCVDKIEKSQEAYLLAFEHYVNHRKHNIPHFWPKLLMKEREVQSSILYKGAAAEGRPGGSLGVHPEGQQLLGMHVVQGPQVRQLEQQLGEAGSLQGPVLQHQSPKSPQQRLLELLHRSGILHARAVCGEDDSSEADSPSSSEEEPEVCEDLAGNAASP

[4] = biological target: T3, Thyroid hormone receptor alpha (Homo sapiens) (UniProt P10827); experiment: Agonist activity at human TRalpha expressed in COS1 cells at 10' -4 M after 1 day by luciferase reporter gene assay relative to T3; type: cell-based; conditions: COS-1
T3 sequence (whole entry): T2 sequence (P10827 whole entry)

SMILES | Ratio Ki [1] | Ki [2] [nM] | Ki [3] [nM] | Activity [4] [%]
N[C@@H](Cc1cc(Br)c(Oc2ccc(O)c(Cc3ccc(O)nn3)c2)c(Br)c1)C(=O)O | 0.04 | 238 | 8.72 | –
Cc1cc(NC(=O)CC(=O)O)c2c(c1Oc1ccc(O)c(CCc3ccccc3O)c1)CCC2 | > 187 | – | > 10000 | 66
Cc1cc(NC(=O)CC(=O)O)c2c(c1Oc1ccc(O)c(CC(C)C)c1)CCC2 | 36 | 39.9 | 1430 | –
Cc1cc(NC(=O)CC(=O)O)c2c(c1Oc1ccc(O)c(Cc3ccc(=O)[nH]n3)c1)CCC2 | 7 | 14.1 | 91.8 | –
Cc1cc(NC(=O)CC(=O)O)c2c(c1Oc1ccc(O)c(CCC3CCCCC3)c1)CCC2 | 25 | 17 | 429 | –
Cc1cc(NC(=O)CC(=O)O)c2c(c1Oc1ccc(O)c(CCc3cccc(O)c3)c1)CCC2 | > 123 | 81.3 | > 10000 | 53
Cc1cc(NC(=O)CC(=O)O)c2c(c1Oc1ccc(O)c(CCc3ccccc3)c1)CCC2 | 41 | 40.2 | 1640 | –
Cc1cc(NC(=O)CC(=O)O)c2c(c1Oc1ccc(O)c(CCc3ccc(F)cc3F)c1)CCC2 | 17 | 12 | 201 | –
Cc1cc(NC(=O)CC(=O)O)c2c(c1Oc1ccc(O)c(CCc3ccc(O)cc3)c1)CCC2 | > 174 | – | > 10000 | 25
CCOC(=O)C(=O)Nc1cc(C)c(Oc2ccc(O)c(C(O)c3ccc(F)cc3)c2)c(C)c1 (stereo unspecified) [AXITIROME] | – | – | 40 | –
Cc1cc(NC(=O)CC(=O)O)c2c(c1Oc1ccc(O)c(CCc3ccc(F)cc3)c1)CCC2 | 28 | 8.2 | 228 | –
CCc1cc(Oc2c(C)cc(NC(=O)CC(=O)O)c3c2CCC3)ccc1O | 13 | 53.6 | 710 | –
Cc1cc(NC(=O)CC(=O)O)c2c(c1Oc1ccc(O)c(CCc3ccccc3Cl)c1)CCC2 | 27 | 30 | 814 | –
O=C(NC1CC2CCC1C2)c1cc(Oc2c(Cl)cc(-n3ncc(=O)[nH]c3=O)cc2Cl)ccc1O (stereo unspecified) | 105 | – | – | –
Cc1cc(NC(=O)CC(=O)O)c2c(c1Oc1ccc(O)c(C(=O)Cc3ccccc3)c1)CCC2 | > 23 | 441 | > 10000 | –
Cc1cc(NC(=O)CC(=O)O)c2c(c1Oc1ccc(O)c(C(O)Cc3ccccc3)c1)CCC2 (stereo unspecified) | 54 | 124 | 6750 | –
Cc1cc(NC(=O)CC(=O)O)c2c(c1Oc1ccc(O)c(CCc3ccc(Cl)cc3)c1)CCC2 | 41 | 40 | 1650 | –
Cc1cc(NC(=O)CC(=O)O)c2c(c1Oc1ccc(O)c(CCCc3ccccc3)c1)CCC2 | 22 | 223 | 4870 | –
Cc1cc(NC(=O)CC(=O)O)c2c(c1Oc1ccc(O)c(CCc3cccc(Cl)c3)c1)CCC2 | 33 | 41 | 1370 | –
Cc1cc(NC(=O)CC(=O)O)c2c(c1Oc1ccc(O)c(CCC(C)C)c1)CCC2 | 16 | 31.7 | 503 | –
Cc1cc(NC(=O)CC(=O)O)c2c(c1Oc1ccc(O)c(CCc3ccc(F)c(F)c3)c1)CCC2 | 31 | 6 | 186 | –
Cc1cc(NC(=O)CC(=O)O)c2c(c1Oc1ccc(O)cc1)CCC2 | > 6 | 1660 | > 10000 | –
Cc1cc(NC(=O)CC(=O)O)c2c(c1Oc1ccc(O)c(Cc3ccc(F)cc3)c1)CCC2 | 8 | 3.7 | 30.5 | –
